This note sets out measurements from patent publication US20160052936A1, “SPIROINDOLINE DERIVATIVES FOR USE AS GONADOTROPIN-RELEASING HORMONE RECEPTOR ANTAGONISTS” (BAYER PHARMA AKTIENGESELLSCHAFT, priority 2013, published 2016).

The structures appear in SMILES notation. Non-standard residues stand in square brackets, D forms with d. Residues, ends and D or L forms follow the SMILES beside them. dPhe(4-Cl) = N[C@H](Cc1ccc(Cl)cc1)C(=O)O; d2Nal = N[C@H](Cc1ccc2ccccc2c1)C(=O)O; dCit = NC(=O)NCCC[C@@H](N)C(=O)O; d3Pal = N[C@H](Cc1cccnc1)C(=O)O

The target in one assay is T1, human GnRHR (Homo sapiens, UniProt P30968).
T1 construct: own knowledge: Tag-lite cells usually carry an N-terminal SNAP-tag fusion; host or cells: Hek293 cells, transiently transfected, supplied frozen
T1 sequence (P30968 1-328): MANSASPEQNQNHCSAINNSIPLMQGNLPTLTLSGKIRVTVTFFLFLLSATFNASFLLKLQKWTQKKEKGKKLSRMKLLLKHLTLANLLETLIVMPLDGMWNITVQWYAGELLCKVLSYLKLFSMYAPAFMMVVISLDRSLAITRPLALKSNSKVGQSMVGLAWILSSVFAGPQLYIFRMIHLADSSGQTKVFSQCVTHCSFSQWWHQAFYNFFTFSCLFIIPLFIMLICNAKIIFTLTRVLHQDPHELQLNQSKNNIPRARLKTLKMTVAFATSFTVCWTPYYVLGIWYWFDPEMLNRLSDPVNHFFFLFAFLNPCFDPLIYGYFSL
Description: Tag-Lite receptor binding assay. The following applies: Hek293 cells transiently transfected with human GnRHR; displacement of green-labelled GnRHR binding peptide; read-out: Potency in receptor binding assay using TAG-LITE technology, given as IC50. An excerpt:
2.2. Tag-Lite® Receptor Binding Assay
This binding assay is based on the fluorescence resonance energy transfer between fluorescence donor labelled human GnRHR and a green-labelled GnRHR binding peptide. Compounds interfering with the ligand binding side of the human GnRHR will replace the labelled peptide resulting in a signal decrease. The assay principle was established by Cisbio Bioassays (Bagnols-sur-Cèze Cedex, France) and further details are available on their homepage.
The assay procedure was further optimized for use in-house with reduced assay volumes. Frozen Hek293 cells, transiently transfected with human GnRHR and Terbium-labelling of the receptor, were supplied by Cisbio Bioassays as well as Tag-Lite buffer and green-labelled GnRHR binding peptide. Cells were thawed and transferred to cold Tag-Lite buffer. A volume of 8 μl of this cell suspension were added to 100 nl of a 160-fold concentrated solution of the test compound in DMSO pre-dispensed in a well of a white low-volume 384-well microtiter plate (Greiner Bio-One, Frickenhausen, Germany). The mixture was incubated for 5 min at room temperature. In the next step either 4 μl Tag-Lite buffer or as control 4 μl of an exceeding amount unlabelled binding peptide in Tag-Lite buffer were transferred to the mixture. The green-labelled GnRHR binding peptide was added in a final step at EC50 in a volume of 4 μl Tag-Lite buffer. After an incubation of 1 h at room temperature plates were measured in a microplate reader, e.g. a PHERAstar (BMG Labtechnologies, Offenburg, Germany) by using a specific optic module.
A ratio from the fluorescence emissions at 520 nm (green fluorescence) and at 490 nm (background signal of Terbium-labelled GnRHR) was calculated and the data were normalized (reaction without test compound=0% inhibition of binding of green-labelled peptide; reaction without test compound with exceeding amount unlabelled binding peptide=100% inhibition of binding of green-labelled peptide). On the same microtiter plate, compounds were tested at 10 different concentrations in the range of 12.5 μM to 0.64 nM (12.5 μM, 4.2 μM, 1.4 μM, 0.46 μM, 0.15 μM, 51 nM, 17 nM, 5.7 nM, 1.9 nM and 0.64 nM; dilution series prepared before the assay at the level of the 160-fold conc. stock solutions by serial 1:3 dilutions in 100% DMSO) in duplicate values for each concentration. By using an in-house software, the IC50 values were calculated by a 4 parameter fit.

A further assay addresses T2, human GnRH receptor (Homo sapiens, UniProt P30968).
T2 construct: host or cells: CHO cells stably expressing human GnRH receptor (line established by Prof. Thomas Gudermann)
T2 sequence (P30968 1-328): T1 sequence (P30968 1-328)
Description: IP-One HTRF assay with buserelin stimulation. Format: cell-based. Particulars: CHO cells stably expressing human GnRH receptor; buserelin at EC80; read-out: Potency in IP-One HTRF assay with buserelin (at EC80) stimulation, given as IC50. The text has this:
By using homogenous time-resolved fluorescence resonance energy transfer (HTRF), the generation of one component of the GnRH-R signalling cascade can be measured. After stimulation of CHO cells stably expressing human GnRH receptor (established by Prof. Thomas Gudermann, currently University of Marburg, Germany; supplied as frozen cell aliquots by Cell Culture Services, Hamburg, Germany) with the EC80 of the GnRH agonist buserelin, Gq protein-coupled receptor signalling cascade is activated resulting in PLC-dependent cleavage of PIP2 to Inositol-1,4,5-triphosphate (IP3) and Diacylglycerol. The second messenger IP3 is degraded intracellularly to myo-inositol. Inhibition of the final degradation step from Inositol-1-phosphate (IP1) to myo-inositol by addition of lithium chloride leads to accumulation of IP1 in the cells. In cell lysates, IP1 can be detected via an antibody-based HTRF detection technology, where IP1 can displace the FRET acceptor IP1-d2 from binding by Terbium-labelled anti-IP1 antibody as donor resulting in a signal decrease. Compounds were tested for their capability of inhibiting GnRH-R activation by buserelin. For all IP-One HTRF® assays reagents of Cisbio Bioassays (IP-One Tb Jumbo kit, #62IPAPEJ; Cisbio Bioassays, Bagnols sur Cèze Cedex, France) were used.
For the assay, frozen cell aliquots were thawed and a cell suspension (3.33×10^6 cells/mL) containing IP1-d2 (dilution 1:40) was prepared and incubated at 37° C. After 1 h 3 μl of the cell suspension were added to 50 nl of a 100-fold concentrated solution of the test compound in DMSO pre-dispensed in a well of a white low-volume 384-well microtiter plate (Greiner Bio-One, Frickenhausen, Germany). […] Plates were incubated for 1 h at 37° C. and 5% carbon dioxide before the cells were lysed by adding 3 μl Terbium-labelled anti-IP1 antibody (1:40) diluted in Conjugate & Lysis buffer as supplied with the kit. After an incubation for 1 h at 22° C. to enable complete cell lysis and antibody binding to free IP1 or IP1-d2, plates were measured in an HTRF reader, e.g. a RUBYstar, PHERAstar (both BMG Labtechnologies, Offenburg, Germany) or a Viewlux (PerkinElmer LAS, Rodgau-Jügesheim, Germany).
From the fluorescence emissions at 665 nm (FRET) and at 620 nm (background signal of Terbium-antibody), the ratio (emission at 665 nm divided by emission at 620 nm) was calculated and the data were normalized (reaction without test compound=0% inhibition; all other assay components except agonist=100% inhibition). On the same microtiter plate, compounds were tested at 10 different concentrations in the range of 20 μM to 1 nM (20 μM, 6.7 μM, 2.2 μM, 0.74 μM, 0.25 μM, 82 nM, 27 nM, 9.2 nM, 3.1 nM and 1 nM; dilution series prepared before the assay at the level of the 100-fold conc. stock solutions by serial 1:3 dilutions in 100% DMSO) in duplicate values for each concentration. By using an in-house software, the IC50 values were calculated by a 4 parameter fit.
Within the meaning of the present invention the antagonist activity is reflected by the ability of a compound of the invention to antagonize human GnRH receptor stimulation in IP-One HTRF® assay at least three times the standard deviation over the background level.

Assay [1] concerns LH level in ovariectomized rats. Description: LH suppression in the ovariectomized rat. Format: in vivo. Particulars: 0.1 mg/kg i.p., 8 hours. The text has this: 2.5. LH Suppression in the Ovariectomized Rat
The in vivo potency of GnRH antagonists can be quantified by a LH suppression test in ovariectomized rats. GnRH triggers the LH release from the pituitary mediated by GnRH receptors. Ovarectomy of adult female rats results in elevated levels of circulating LH due to a lack of negative feedback by gonadal steroids. GnRH antagonists suppress the release of LH and accordingly suppression of LH levels can be used to quantify the in vivo potency of GnRH antagonists.
Female adult rats were ovariectomized surgically and they were allowed to recover for at least one week. The animals received 0.5 mg/kg, 3 mg/kg or 10 mg/kg of Example 3.1 by single per oral administration. For comparison reasons a vehicle control and a positive control, 0.1 mg/kg cetrorelix (i.p.), were given once. At 0 min, 15 min, 30 min, 1 hour, 2 hours, 4 hours, 8 hours and 24 hours after compound administration blood was taken from the retro orbital plexus (n=6 per blood withdrawal) for the measurement of serum LH and serum compound levels.
As nonbinding explanatory example of compounds according to the invention FIG. 1 represents the LH level following administration of the compound according to Example 3.1, to ovariectomized adult rats. [Filled circle: Vehicle; Circle, dotted black line: Cetrorelix (0.1 mg/kg); Triangle: Example 3.1 (0.5 mg/kg); Reverse triangle: Example 3.1 (3 mg/kg); Diamond: Example 3.1 (10 mg/kg)]. Values are given as mean+standard deviation (n=6).

With `O=C(NCc1ncc(C(F)(F)F)cc1Cl)c1ccc2c(c1)C1(CCS(=O)(=O)CC1)C(C1CC1)N2S(=O)(=O)c1cccc(OC(F)F)c1` (racemic) [Example 14, N-{[3-chloro-5-(trifluoromethyl)pyridin-2-yl]methyl}-2-cyclopropyl-1-{[3-(difluoromethoxy)phenyl]sulfonyl}-1,2,2′,3′,5′,6′-hexahydrospiro[indole-3,4′-thiopyran]-5-carboxamide 1′,1′-dioxide], the IC50 (as a rule, the concentration that inhibits the measured activity by half) worked out at 78.7 nM on human GnRHR and 82 nM on human GnRH receptor. The corresponding values for `O=C(NCc1ncc(C(F)(F)F)cc1Cl)c1ccc2c(c1)C1(CCS(=O)(=O)CC1)[C@@H](C1CC1)N2S(=O)(=O)c1ccc(F)cc1` [Example 3.2, (2R)—N-{[3-chloro-5-(trifluoromethyl)pyridin-2-yl]methyl}-2-cyclopropyl-1-[(4-fluorophenyl)sulfonyl]-1,2,2′,3′,5′,6′-hexahydrospiro[indole-3,4′-thiopyran]-5-carboxamide 1′,1′-dioxide] are 748 nM and 2430 nM.

`CC(=O)N[C@H](Cc1ccc2ccccc2c1)C(=O)N[C@H](Cc1ccc(Cl)cc1)C(=O)N[C@H](Cc1cccnc1)C(=O)N[C@@H](CO)C(=O)N[C@@H](Cc1ccc(O)cc1)C(=O)N[C@H](CCCNC(N)=O)C(=O)N[C@@H](CC(C)C)C(=O)N[C@@H](CCCNC(=N)N)C(=O)N1CCC[C@H]1C(=O)N[C@H](C)C(N)=O` [cetrorelix, reference compound] (Ac-[d2Nal][dPhe(4-Cl)][d3Pal]SY[dCit]LRP[dA]-NH2): the LH suppression entry in assay [1] was “ca. 90%”.
